Where a SMILES comes first, the peptide text is derived from it. The star is where a group is joined. Cbz = O=C(OCc1ccccc1)*; CH2F = FC*
How the values were obtained:
Format in all cases: cell-based
[1] = tested on: isolated live cancer cells; test: depletion of Wnt signaling ligands (Example 7); details: beta-methyl-cyclodextrin 0.5-20 mM, one half to 3 hours prior to the end of the augmentation phase
Experimental: Isolated live cancer cells are placed in tissue culture. One half to 3 hours prior to the end of the augmentation phase and preparation for DC loading, the tissue culture medium is supplemented with beta-methyl-cyclodextrin at a concentration of 0.5-20 mM. Cholesterol and Wnt ligands are depleted from the plasma membrane of the cancer cells.

[2] = tested on: isolated live cancer cells; test: augmentation culture with proteasome inhibitors (Example 4); details: lactacystin 0.1-1 μM, epoxomicin 1-2 μM, and/or HMB 10-150 μg/mL; at least the last 24 hours prior to harvest
Experimental: Isolated live cancer cells are placed in tissue culture. The tissue culture medium is supplemented with lactacystin at a concentration of 0.1-1 μM, epoxomicin at a concentration of 1-2 μM, and/or HMB at a concentration of 10-150 μg/mL. The inhibitor can be present throughout the augmentation phase of culture, or a portion thereof, but at least the last 24 hours prior to harvest. Doses in the lower end of the stated ranges are appropriate for longer term exposure. Doses at the high end of the state ranges can be used in the last 24 hours of cultivation. The content of protein (including normal, mutated and misfolded proteins) in the cancer cells is increased.

[3] = tested on: isolated live cancer cells; test: augmentation culture with DNA methyltransferase inhibitor (Example 3); details: decitabine 100-500 nM throughout, or 1 μM-10 μM at beginning of augmentation phase
Experimental: Isolated live cancer cells are placed in tissue culture. The tissue culture medium is supplemented with decitabine from the beginning of the augmentation phase for not less than one hour and up to the entire augmentation phase depending on concentration. A concentration of 100-500 nM can be used throughout the augmentation phase of cultivation. Alternatively a higher concentration of 1 μM-10 μM can be used at beginning of the augmentation phase and then removed or reduced to the lower concentration.

[4] = tested on: isolated live cancer cells; test: culture with caspase inhibitor (Example 6); details: Z-VAD-fmk 5-50 μM throughout proliferation and augmentation phases
Experimental: Isolated live cancer cells are placed in tissue culture. The tissue culture medium is supplemented with the broad spectrum caspase inhibitor Z-VAD-fmk at a concentration of 5-50 μM. The caspase inhibitor is added at the initiation of cell culture and maintained throughout the proliferation and augmentation phases of culture.

[5] = tested on: established ovarian tumor line; test: cell survival of ovarian tumor line culture exposed to proteasome inhibitor and/or caspase inhibitor
Experimental: To benefit from the increased antigen content that can be obtained through use of a proteasome inhibitor, but also avoid triggering apoptosis, the proteasome inhibitor can be used in conjunction with a caspase inhibitor. First, to find the concentration of the proteasome inhibitor that caused minimal cell death, a range of bortezomib dilutions were tested in vitro on an established ovarian tumor line after reaching 70-90% confluence. The cultures were maintained in a standard DMEM:F12 media with 5% FBS. Bortezomib was reconstituted in DMSO and added directly to the cultures in concentrations from 0.1 to 100 nM
A concentration of 20 μM was chosen for further experiments.
Then the sequential application of the caspase inhibitor and proteasome inhibitor was tested. The tumor cells were cultured in the presence of 20 μM caspase inhibitor Z-VAD-fmk for 24 hours and then the medium was exchanged for medium containing bortezomib and the cells culture for another 48 hours. Bortezomib was used at the lowest concentration of that induced cell death, 5 nM.
The simultaneous application of Bortezomib and Z-VAD-fmk was also tested using 1 nM Botezomib with either 1 or 20 μM Z-VAD-fmk.

[6] = tested on: isolated live cancer cells; test: augmentation culture with histone deacetylase inhibitors (Example 2); details: 0.01 mM to 10 mM each in the medium during augmentation phase
Experimental: Isolated live cancer cells are placed in tissue culture. During an augmentation phase, the tissue culture medium is supplemented with valproic acid or phenylbutyrate, or both, each at a concentration of 0.01 mM to 10 mM each. The level of histone acetylation, mRNA transcription, and protein expression, including expression of TAA, all increase.

CA125 = test: antibody labeling and epifluorescence imaging of protein content, CA125; details: bortezomib 0.1 nM to 1.0 nM, without caspase inhibitor (FIGS. 6 and 7)
From the text: (§1) To evaluate protein content, we queried two targets that are commonly found in cancers: CA125, which is typically specific for ovarian cancer, and MUC1, which is common in many types of cancer (for example, colon, breast, ovarian, lung and pancreatic). The proteins were labeled using antibodies conjugated with Alexa Fluor 488 (green; anti-MUC1) or 594 (red; anti-CA125). The cells were imaged with an epifluorescence microscope (Nikon) with pre-set parameters for exposure and magnification.

MUC1 = test: antibody labeling and epifluorescence imaging of protein content, MUC1; details: bortezomib 0.1 nM to 1.0 nM, without caspase inhibitor (FIGS. 6 and 7)
From the text: as §1

## methyl-β-cyclodextrin [beta-methyl-cyclodextrin]
[1]
  cholesterol and Wnt ligands of the plasma membrane of the cancer cells: depleted

## CC(=O)N[C@@H](CSC(=O)[C@]1([C@@H](O)C(C)C)NC(=O)[C@H](C)[C@@H]1O)C(=O)O [lactacystin]
[2]
  content of protein (including normal, mutated and misfolded proteins) in the cancer cells: increased

## CC(C)(O)CC(=O)O [HMB, beta-hydroxy beta-methylbutyrate]
[2]
  content of protein (including normal, mutated and misfolded proteins) in the cancer cells: increased

## Nc1ncn([C@H]2C[C@H](O)[C@@H](CO)O2)c(=O)n1 [decitabine, 5-aza-2′-deoxycytidine]
[3]
  expression of silenced germ line and tumor-specific antigens: increased and becomes more uniform
  hypermethylation: reversed

## COC(=O)C[C@H](NC(=O)[C@H](C)NC(=O)[C@@H](NC(=O)OCc1ccccc1)C(C)C)C(=O)CF [Z-VAD-fmk] (Cbz-Val-Ala-Asp(OMe)-CH2F)
[4]
  accumulation of proteins, including TAA: accumulate to higher levels than in untreated cultures
  viability of the cultured cancer cells: maintaining a high degree of viability
[5]; Z-VAD-fmk 10-100 μM, without an apoptotic challenge
  effect on cell survival: did not have an effect on cell survival

## CCCC(CCC)C(=O)O [valproic acid]
[6]
  level of histone acetylation, mRNA transcription, and protein expression, including expression of TAA: increase

## CC[C@H](C)[C@H](NC(=O)[C@H]([C@@H](C)CC)N(C)C(C)=O)C(=O)N[C@H](C(=O)N[C@@H](CC(C)C)C(=O)[C@@]1(C)CO1)[C@@H](C)O [epoxomicin]
[2]
  content of protein (including normal, mutated and misfolded proteins) in the cancer cells: increased

## CC(C)C[C@H](NC(=O)[C@H](Cc1ccccc1)NC(=O)c1cnccn1)B(O)O [bortezomib]
CA125
  abundance and content of CA125 (mean fluorescence intensity, sum of labeled pixels): increase
MUC1
  abundance and content of MUC1 (mean fluorescence intensity, sum of labeled pixels): increase
[5]; below 1 nM bortezomib
  effect on survival: did not have effect on survival
[5]; bortezomib alone
  lowest concentration that induced cell death: 5 nM
[5]; concentrations above 5 nM bortezomib, within 24 hours, DMEM:F12 with 5% FBS
  cell survival: all cells died
[5]; from 5 nM to 1 nM bortezomib
  cell survival: cell survived proportional with decreasing concentration

Reference: patent publication US20250236841A1, “METHODS TO ENHANCE TUMOR IMMUNOGENICITY AND COMPOSITIONS FOR AUTOLOGOUS CANCER IMMUNOTHERAPEUTIC PRODUCTS USING MODIFIED TUMOR CELLS AND MODIFIED DENDRITIC CELLS” (AIVITA BIOMEDICAL, INC., priority 2017, published 2025)
